# Test results reported in patent US20100086931A1, “METHOD FOR ASSAYING ACTION OF ANTITUMOR AGENT USING DECREASE IN GENE EXPRESSION LEVEL AS INDEX” (Eisai R&D Management Co., Ltd., priority 2007, published 2010).
# System: human colon carcinoma cell strain WiDr
# Assay: Microarray analysis (Human Genome U133 plus 2.0 array) of mRNA expression in WiDr cells treated with compound A
# Format: cell-based
# Conditions: 14 nM, 6 h, ratio to control
# Procedure: Microarray analysis (Human Genome U133 plus 2.0 array: Affymetrix) was carried out using RNA purified from human colon carcinoma cell strain WiDr treated with 2.8 nM and 14 nM of (8E,12E,14E)-7-((4-Cycloheptylpiperazin-1-yl)carbonyl)oxy-3,6,16,21-tetrahydroxy-6,10,12,16,20-pentamethyl-18,19-epoxytricosa-8,12,14-trien-11-olide (hereinafter also referred to as “compound A”) for six hours.
# WiDr cells were first suspended in RPMI1640 medium (containing 10% FBS, penicillin, and streptomycin) and seeded in a 10 cm dish (2×10^6 cells/dish). After an overnight culture in an incubator with 5% carbon dioxide gas at 37° C., the medium was changed with medium containing 2.8 nM and 14 nM of compound A or containing vehicle alone. After cultured additional six hours, TRI reagent (SIGMA) was added to cells, and the cells were harvested. RNA was purified in accordance with the protocol of TRI reagent, followed by further purification with RNeasy (QIAGEN). Absorbance at 260 nm was measured to quantify an amount of RNA.
# Subsequently, single stranded cDNA synthesis, double stranded cDNA synthesis, biotin-labeled cRNA synthesis, and cRNA fragmentation in order were carried out from 5-10 μg (WiDr 10 μg, PBMC 5 μg) of total RNA from the control cells and the treated cells, by using One-Cycle Target Labeling and Control Reagents (Affymetrix). cRNA probe was used for hybridization with Human Genome U133 Plus 2.0 Array (Affymetrix). The array was then washed and stained, and luminescence intensity was measured by a scanner.
# The RMA method was applied to 33 of .cel files obtained in the microarray experiment and log signal intensity at a gene level normalized with log signal intensity at a probe level was obtained. By subtracting the mean between control 1 and control 3 from the mean between log signal intensity 1 and log signal intensity 3 for each case, the log signal intensity was converted into a log signal ratio to the control. A t-test was conducted between each log signal intensity and control, and candidate genes were narrowed down in the basis of a p-value, a log signal ratio, and a signal value. Specifically, genes showing that the P value was 5% or less; the expression level in the untreated (control) is 100 or more by signal value; and the expression level when treated with both 2.8 nM and 14 nM of compound A is, compared to the control, 25% or less, were picked out. The software used is R2.2.1 (http://www.r-project.org/), affy package 1.8.1 (http://www.bioconductor.org).
# Genes showing that, by the treatment with compound A, the P value was 5% or less; the expression level in the untreated (control) is 100 or more by signal value; and the expression level when treated with both 2.8 nM and 14 nM of compound A is, compared to the control, 25% or less, and results thereof were shown in Table 1. Probe ID used in Table 1 represents Human Genome U133 Plus 2.0 Array Probeset ID. In Table 1, for each gene evaluated, gene name (Gene Name), abbreviated name (Gene Symbol), accession number (Accession), alias name (Synonym), Probe set number in Human Genome U133 Plus 2.0 Array (Human Genome U133 Plus 2.0 Array Probeset ID), the expression level upon the six-hour treatment with 2.8 nM of E7107 (2.8 nM (6 h)), and the expression level upon the six-hour treatment with 14 nM of E7107 (14 nM (6 h)) were respectively shown.
smiles,measurement,value
"CCC(O)C(C)C1OC1CC(C)(O)/C=C/C=C(\C)C1OC(=O)CC(O)CCC(C)(O)C(OC(=O)N2CCN(C3CCCCCC3)CC2)/C=C/C1C (stereo not drawn) [E7107, (8E,12E,14E)-7-((4-Cycloheptylpiperazin-1-yl)carbonyl)oxy-3,6,16,21-tetrahydroxy-6,10,12,16,20-pentamethyl-18,19-epoxytricosa-8,12,14-trien-11-olide]",ADPRHL2 mRNA expression level (223097_at),0.20
same,ANGEL2 mRNA expression level (221825_at),0.17
same,ARMC8 mRNA expression level (203486_s_at),0.12
same,ATP2A2 mRNA expression level (212361_s_at),0.17
same,ATP2B1 mRNA expression level (212930_at),0.10
same,ATP6V0A2 mRNA expression level (205704_s_at),0.15
same,BPTF mRNA expression level (232909_s_at),0.05
same,C1orf63 mRNA expression level (209006_s_at),0.19
same,C1orf79 mRNA expression level (223774_at),0.14
same,C1orf82 mRNA expression level (222893_s_at),0.19
same,C5orf28 mRNA expression level (219029_at),0.05
same,C6orf136 mRNA expression level (227455_at),0.15
same,C7orf23 mRNA expression level (204215_at),0.04
same,C7orf36 mRNA expression level (223433_at),0.15
same,C7orf49 mRNA expression level (220949_s_at),0.23
same,C12orf32 mRNA expression level (225837_at),0.17
same,C15orf40 mRNA expression level (1552310_at),0.19
same,C17orf80 mRNA expression level (223351_at),0.21
same,C20orf112 mRNA expression level (225224_at),0.09
same,CARD10 mRNA expression level (210026_s_at),0.13
same,CASC5 mRNA expression level (228323_at),0.14
same,CCDC14 mRNA expression level (225017_at),0.17
same,CCNE2 mRNA expression level (205034_at),0.05
same,CDC6 mRNA expression level (203967_at),0.08
same,CDC7 mRNA expression level (204510_at),0.13
same,"CDNA FLJ34214 fis, clone FCBBF3021807 mRNA expression level (227087_at)",0.17
same,CLDND1 mRNA expression level (208925_at),0.09
same,CLIP1 mRNA expression level (201975_at),0.12
same,DAPK1 mRNA expression level (203139_at),0.07
same,DNAJC16 mRNA expression level (212908_at),0.15
same,E2F7 mRNA expression level (228033_at),0.06
same,EHBP1 mRNA expression level (212653_s_at),0.05
same,ELL3 mRNA expression level (219518_s_at),0.20
same,ERCC3 mRNA expression level (202176_at),0.22
same,EVI1 mRNA expression level (226420_at),0.07
same,FAM86C mRNA expression level (65585_at),0.22
same,FANCL mRNA expression level (218397_at),0.21
same,FBXL5 mRNA expression level (209004_s_at),0.05
same,FCHO2 mRNA expression level (228220_at),0.11
same,FGF19 mRNA expression level (223761_at),0.18
same,FKSG44 mRNA expression level (227964_at),0.06
same,FLJ20628 mRNA expression level (221229_s_at),0.25
same,FRY mRNA expression level (204072_s_at),0.10
same,Full-length cDNA clone CS0DL007YI24 of B cells (Ramos cell line) mRNA expression level (226648_at),0.12
same,GRHL1 mRNA expression level (222830_at),0.18
same,HDAC4 mRNA expression level (204225_at),0.21
same,INTS7 mRNA expression level (222250_s_at),0.20
same,IREB2 mRNA expression level (225892_at),0.03
same,IXL mRNA expression level (225708_at),0.14
same,JAGN1 mRNA expression level (223104_at),0.09
same,JUB mRNA expression level (225806_at),0.09
same,KCNE3 mRNA expression level (227647_at),0.16
same,KIAA0323 mRNA expression level (212355_at),0.19
same,KIAA0776 mRNA expression level (212633_at),0.15
same,KIAA0859 mRNA expression level (212405_s_at),0.09
same,KIF2C mRNA expression level (211519_s_at),0.12
same,KIF21A mRNA expression level (226003_at),0.09
same,KIN mRNA expression level (205664_at),0.19
same,KLHL12 mRNA expression level (225068_at),0.11
same,LIPG mRNA expression level (219181_at),0.11
same,LOC51315 mRNA expression level (218303_x_at),0.07
same,LOC124512 mRNA expression level (225808_at),0.16
same,MASTL mRNA expression level (228468_at),0.11
same,MCM10 mRNA expression level (220651_s_at),0.06
same,METTL3 mRNA expression level (209265_s_at),0.19
same,METTL4 mRNA expression level (219698_s_at),0.18
same,MKRN1 mRNA expression level (201285_at),0.22
same,MLL2 mRNA expression level (227527_at),0.10
same,MND1 mRNA expression level (223700_at),0.14
same,MYOHD1 mRNA expression level (225947_at),0.24
same,NCOA5 mRNA expression level (225145_at),0.17
same,NIN mRNA expression level (225921_at),0.21
same,NOC3L mRNA expression level (218889_at),0.15
same,NPC1 mRNA expression level (202679_at),0.20
same,NR2C1 mRNA expression level (204791_at),0.13
same,NUPL1 mRNA expression level (223984_s_at),0.12
same,NUPL2 mRNA expression level (204003_s_at),0.21
same,ORC5L mRNA expression level (204957_at),0.12
same,PAXIP1 mRNA expression level (212825_at),0.08
same,PCGF1 mRNA expression level (210023_s_at),0.18
same,PHACTR4 mRNA expression level (226823_at),0.15
same,PHF20L1 mRNA expression level (226942_at),0.10
same,PIK3C3 mRNA expression level (204297_at),0.22
same,PLEKHA5 mRNA expression level (220952_s_at),0.06
same,PMS1 mRNA expression level (213677_s_at),0.17
same,POLD3 mRNA expression level (212836_at),0.09
same,POLR3E mRNA expression level (222490_at),0.10
same,PPM1B mRNA expression level (209296_at),0.07
same,PPWD1 mRNA expression level (213483_at),0.14
same,RAD54B mRNA expression level (219494_at),0.10
same,RBBP6 mRNA expression level (212783_at),0.12
same,RBM17 mRNA expression level (224780_at),0.13
same,RBMS1 mRNA expression level (209868_s_at),0.11
same,REPS1 mRNA expression level (224366_s_at),0.12
same,RFC4 mRNA expression level (204023_at),0.04
same,RIF1 mRNA expression level (226821_at),0.07
same,RPS6KC1 mRNA expression level (218909_at),0.22
same,SFXN1 mRNA expression level (230069_at),0.06
same,SHPRH mRNA expression level (226366_at),0.08
same,SLC17A5 mRNA expression level (223441_at),0.18
same,SLC25A19 mRNA expression level (223222_at),0.22
same,SLC37A1 mRNA expression level (218928_s_at),0.25
same,SMEK2 mRNA expression level (226230_at),0.14
same,SMUG1 mRNA expression level (218685_s_at),0.24
same,STAMBPL1 mRNA expression level (227606_s_at),0.14
same,STXBP3 mRNA expression level (203310_at),0.14
same,SYTL2 mRNA expression level (232914_s_at),0.24
same,TAF4 mRNA expression level (213090_s_at),0.09
same,TMEM177 mRNA expression level (218897_at),0.22
same,TNS3 mRNA expression level (217853_at),0.07
same,TRIM31 mRNA expression level (210159_s_at),0.21
same,TRIP4 mRNA expression level (203732_at),0.23
same,TSEN2 mRNA expression level (219581_at),0.11
same,TTC4 mRNA expression level (46167_at),0.09
same,TUBGCP3 mRNA expression level (203690_at),0.11
same,Transcribed locus mRNA expression level (230098_at),0.13
same,Transcribed locus mRNA expression level (230177_at),0.22
same,Transcribed locus mRNA expression level (235609_at),0.17
same,"Transcribed locus, moderately similar to XP_518244.1 mRNA expression level (235046_at)",0.10
same,"Transcribed locus, strongly similar to NP_002194.1 integrin alpha 2 precursor mRNA expression level (227314_at)",0.12
same,"Transcribed locus, strongly similar to NP_689873.1 mRNA expression level (228638_at)",0.12
same,UNC50 mRNA expression level (203583_at),0.06
same,WBP4 mRNA expression level (203598_s_at),0.17
same,WDR26 mRNA expression level (218107_at),0.16
same,WDR67 mRNA expression level (214061_at),0.08
same,ZC3HAV1L mRNA expression level (228280_at),0.04
same,ZCCHC6 mRNA expression level (220933_s_at),0.25
same,ZKSCAN1 mRNA expression level (214670_at),0.15
same,ZMIZ1 mRNA expression level (212124_at),0.05
same,ZNF518 mRNA expression level (204291_at),0.12
same,"mRNA expression level, probeset 228106_at (gene name not given)",0.18
same,"mRNA expression level, probeset 235436_at (gene name not given)",0.19
